In PubChem BioAssay (NCI):
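Grown in 96-well plates, cells were treated for 48 hours with each compound at five concentrations. Insufficient inhibition: endpoint recorded as highest concentration tested. The concentration for 50% growth inhibition is given as GI50. TGI: concentration producing complete growth inhibition.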

Columns and labels:
Test in all cases: NCI-60 cell line screen, 48 h
SK-MEL-5 melanoma = tested on: SK-MEL-5 melanoma
OVCAR-8 ovarian = tested on: OVCAR-8 ovarian
UACC-257 melanoma = tested on: UACC-257 melanoma
SF-268 CNS = tested on: SF-268 CNS
HOP-92 NSCLC = tested on: HOP-92 NSCLC
PC-3 prostate = tested on: PC-3 prostate
OVCAR-5 ovarian = tested on: OVCAR-5 ovarian
ACHN renal = tested on: ACHN renal
A549 NSCLC = tested on: A549 NSCLC
SNB-75 CNS = tested on: SNB-75 CNS

Row | SMILES | TGI (SK-MEL-5 melanoma) [µM] | TGI (OVCAR-8 ovarian) [µM] | TGI (UACC-257 melanoma) [µM] | TGI (SF-268 CNS) [µM] | TGI (HOP-92 NSCLC) [µM] | TGI (PC-3 prostate) [µM] | TGI (OVCAR-5 ovarian) [µM] | TGI (ACHN renal) [µM] | TGI (A549 NSCLC) [µM] | TGI (SNB-75 CNS) [µM] | GI50 (SK-MEL-5 melanoma) [µM] | GI50 (OVCAR-8 ovarian) [µM] | GI50 (A549 NSCLC) [µM] | GI50 (UACC-257 melanoma) [µM] | GI50 (SF-268 CNS) [µM] | GI50 (PC-3 prostate) [µM] | GI50 (SNB-75 CNS) [µM] | GI50 (OVCAR-5 ovarian) [µM] | GI50 (ACHN renal) [µM]
1 | C[C@@H]([C@H]1CC[C@@]2(C)[C@@H]3CC[C@@H]4C(=CC3=CC[C@]12C)CC[C@H](N(C)C)C4(C)C)N(C)C | > 100 | > 100 | > 100 | > 100 | > 100 | > 100 | > 100 | > 100 |  |  |  |  |  |  |  |  |  |  | 
2 | CCC1OC2(C)CC(C#N)(C#N)C1(C#N)C(=N)O2 (configuration not stated) | > 100 |  | > 100 | > 100 | > 100 | > 100 | > 100 | > 100 | > 100 | > 100 |  |  |  |  |  |  |  |  | 
3 | Cc1cc2ccccc2n2c1nc1ccc(O)cc12 | > 10 | > 10 | > 10 | > 10 |  | > 10 | > 10 | > 10 | > 10 | > 10 |  |  |  |  |  |  |  |  | 
4 | COC1OC(C)/C(=N/O)C2OC(C)(C)OC12 (configuration not stated) | > 100 | > 100 | > 100 | > 100 | > 100 | > 100 | > 100 | > 100 | > 100 |  |  |  |  |  |  |  |  |  | 
5 | COc1c(NC(C)=O)c2ccccc2c2ccccc12 | > 100 | > 100 | > 100 | > 100 | > 100 | > 100 | > 100 | > 100 | > 100 |  |  |  |  |  |  |  |  |  | 
6 | Oc1c(NCn2nc(CCCCCCCCc3nn(CNc4ccc5ccccc5c4O)c(=S)o3)oc2=S)ccc2ccccc12 | > 100 |  | > 100 | > 100 | > 100 | > 100 | > 100 | > 100 | > 100 | > 100 |  |  |  |  |  |  |  |  | 
7 | Cc1oc(N)c(S(=O)(=O)/C(C#N)=C/c2ccccc2[N+](=O)[O-])c1C | 38.1 |  | > 100 | > 100 | > 100 | 99 | 39.2 | > 100 | 59.7 | > 100 |  |  |  |  |  |  |  |  | 
8 | O=C(CCC(NC(=O)OCc1ccccc1)C(=O)OCc1ccccc1)Nc1cccc(OCc2ccccc2)c1 (configuration not stated) |  | 78.6 | 55 | 71 | 75 | 35.9 | > 100 | > 100 | > 100 | > 100 |  |  |  |  |  |  |  |  | 
9 | C=CCN1C(=O)C[C@H](Cc2ccccc2)NC(=O)C[C@H](Cc2ccccc2)N(CC=C)C(=O)C[C@H](Cc2ccccc2)NC(=O)C[C@@H]1Cc1ccccc1 | > 100 | > 100 | > 100 | > 100 | 80.4 | > 100 | > 100 |  | > 100 | 50.1 |  |  |  |  |  |  |  |  | 
10 | O=C(NCc1cn(Cc2cccc(Oc3ccccc3)c2)nn1)c1cccnc1NCc1ccc(Cl)cc1 | 7.4 | > 100 | > 100 | > 100 |  | > 100 | > 100 | > 100 | > 100 | 7.77 | 2.53 | 3.63 | 3.21 | 3.83 | 4.82 | 2.96 | 2.02 | 5.62 | 4.03
11 | Cc1cccc(NC(=S)Nc2cccc(Cl)c2)n1 | > 100 | > 100 | > 100 | > 100 |  | > 100 | > 100 | > 100 | > 100 | > 100 |  |  |  |  |  |  |  |  | 
